# Experimental data reported in patent US20070031889A1, “Method for rapidly detecting quinolone-resistant Salmonella ssp. and the probes and primers utilized therein” (Bureau of Food and Drug Analysis, Department of Health, …, priority 2004, published 2007).
# Where “and” joins values, the source holds several entries; their conditions need not be identical. Equal entries are not always repeated. Where two headings read alike, the source gives them in different places. {LC640} = LightCycler Red 640 dye label (LCRED640); {FL} = fluorescein label (FL); {P} = phosphate
# Assays:
# Salmonella strains = assay: Minimum inhibitory concentration (MIC) of quinolone antibacterials by E-test strips; type: cell-based, Salmonella spp.; settings: for MIC: Salmonella
# Procedure: The minimum inhibitory concentration was deterrnined by the E-test strips of quinolone antibacterials (AB BIODISC North America Inc., Solna, Sweden). The bacterial strain to be tested was streak plated on xylose lysin desoxycholate agar (XLD) (Merck kGaA, Darmstadt, Germany). After the purity of said strain was verified, the strain was grown on tryptic soy agar (TSA) medium (Merck kGaA, Darrnstadt, Germany) at 35-37° C. for 16-18 hours and then suspended in sterile water. The bacterial concentration was adjusted to 80% of turbidity (corresponding to 0.5 MacFarland turbidity standard, and the bacterial content is approximately […]) using Vitek Special DR 100 Colorimeter (HACH Company, Colorado, USA). Then, 0.1 ml of the bacterial aliquot was placed on the prepared Mueller-Hinton (M-H) agar medium (having the diameter of 9 cm and the thickness of 4.0±0.5 mm) (Merck kGaA, Darmstadt, Germany) and the aliquot was spread evenly on the medium by a sterilized glass rod. The medium plate stood still for 10 to 15 minutes to ensure that the bacterial aliquot completely penetrated into the medium. Thereafter, a sterilized tweezer was used to clip the E region of the E-test antibacterial test strip which was then placed on the inoculated M-H medium plate. Two E-test trips were placed parallel to each other and symmetrically on each medium plate. Said medium plates were then incubated at 35-37° C. for 16-18 hours. The results were determined based on the standards from National Committee for Clinical Laboratory Standard (NCCLS, 2001), USA. Each antibacterial agent was tested in a duplicate experiment, and E. coli ATCC 25922/CCRC 11509 was used as the control of the tested strains in each experiment.
# [1] = tested on: single-stranded PCR products of Salmonella gyrA gene; assay: Real-time PCR with melting curve analysis of gyrA4 hybridization probes; type: binding, Salmonella spp.
# Procedure: (§1) The bacterial strain to be tested was streak plated on XLD medium. After the purity of said strain was verified, the strain was grown in TSB broth at 35±1° C. for 18±2 hours. Following refrigerated centrifugation, Wizard® Genomic DNA Purification Kit was used to extract the genomic DNA. One microliter of the DNA extraction solution was added to the reaction mix (containing 0.5 μM primer set, 0.2 μM probe set, 4 mM MgCl2, and 1×LightCycler DNA Master hybridization mix) to a final volume of 20 μl, which was then placed in LightCycler (Roche Applied Science, Mannheim, Germany) for amplification and melting reaction of the hybrid of the PCR product with the hybridization probes.
# [2] = tested on: single-stranded PCR products of parC gene; assay: Real-time PCR with melting curve analysis of parC238 hybridization probes; type: binding, Salmonella spp.
# Procedure: as §1
# [3] = Table 4, gyrA single point mutation strains (52)
molecule,measurement,setting,value
O=C(O)c1cn(C2CC2)c2cc(N3CCNCC3)c(F)cc2c1=O [ciprofloxacin],Susceptibility Cp,Salmonella strains; Mutant strains (75),S/R
same,Susceptibility,"Salmonella strains; Table 4, Wild type strains",S
same,Susceptibility,Salmonella strains; [3],S
same,Susceptibility Cp,Salmonella strains; Wild type strains (45),"S (S, susceptibility, MICs 0.006-0.38 μg/ml)"
same,Ciprofloxacin susceptibility,Salmonella strains; parC mutant (A238C) strains (23),Resistant
same,Ciprofloxacin susceptibility,Salmonella strains; parC wild type strains (97),Sensitive
same,Susceptibility,Salmonella strains; {},S
CCn1cc(C(=O)O)c(=O)c2ccc(C)nc21 [nalidixic acid],share of the 120 Salmonella strains tested that were resistant,Salmonella strains; 120 strains from animal foods and clinical samples,62.5%
same,MIC,"Salmonella strains; read-out: MICs, resistant strains (gyrA mutants)",≥ 256 µg/mL
same,MIC,"Salmonella strains; susceptible strains (wild type), read-out: MICs",2.5 to 7 µg/mL
same,Susceptibility,"Salmonella strains; Table 4, Wild type strains",S
same,Susceptibility,Salmonella strains; [3],R
same,Susceptibility NA,Salmonella strains; Wild type strains (45),"S (S, susceptibility, MICs 2.5˜7 μg/ml)"
same,Susceptibility,Salmonella strains; {},R
same,Susceptibility NA,Salmonella strains; {},"R (R, resistance, MICs ≧ 256 μg/ml)"
"gyrA4: hybridization probe set of gyrA4-FL (SEQ ID NO: 5) and gyrA4-LC640 (SEQ ID NO: 6) (DNA 1 CGATTCCGCAGTGTATGACACC; DNA 2 CGTTCGTATGGCGCAGCCATTCTCG; DNA 1: DNA, 3' {FL}, backbone not given here; DNA 2: DNA, 5' {LC640}, 3' {P}, backbone not given here; listed as Salmonella sp.)",Tm ± SD (CV %),[1]; C248A mutant strains,58.6±0.3 °C and 58.6 ± 0.3 (0.51) ° C.
same,Tm ± SD (CV %),[1]; C248T mutant strains,59.1±0.2 °C and 59.1 ± 0.2 (0.40) ° C.
same,Tm ± SD (CV %),[1]; G259A mutant strains,59.8±0.4 °C and 59.8 ± 0.4 (0.60) ° C.
same,Tm ± SD (CV %),[1]; G259T mutant strains,59.6±0.4 °C and 59.6 ± 0.4 (0.68) ° C.
same,Tm ± SD (CV %),[1]; Wild type strains,63.6±1.0 °C and 63.6 ± 1.0 (1.62) ° C.
same,Tm ± SD (CV %),[1]; double point mutation C248T/A260G strains,54.6±0.2 °C and 54.6 ± 0.2 (0.27) ° C.
same,Tm ± SD (CV %),"[1]; single point mutation strains (C248A, C248T, G259A, G259T)",59.2±0.5 °C and 59.2 ± 0.5 (0.89) ° C.
"parC238: hybridization probe set of parC238-FL (SEQ ID NO: 7) and parC238-LC640 (SEQ ID NO: 8) (DNA 1 CGACCGCGCCTGCT; DNA 2 GAAGCCATGGTGCTGATGGCG; DNA 1: DNA, 3' {FL}, backbone not given here; DNA 2: DNA, 5' {LC640}, 3' {P}, backbone not given here; listed as Salmonella sp.)",Tm ± SD (CV %),[2]; parC mutant (A238C) strains,61.4±0.3 °C
same,Tm ± SD (CV %),[2]; parC wild type strains,47.4±0.5 °C
